Reference: ChEMBL document CHEMBL5537205, “Discovery of D25, a Potent and Selective MNK Inhibitor for Sepsis-Associated Acute Spleen Injury” (J Med Chem, 2024)
Activity calls are given as the source filed them. The calls are words filed in the database; no cut-off is given here.

Legend:
RAW264.7 [1] = experiment: Antiinflammatory activity against LPS-induced mouse RAW264.7 cells assessed as decrease in phosphorylated eIF4E expression at 10 to 20 uM by Western blot analysis; assay type: functional, cell-based; settings: dose 10-20 µM
[2] = AUC (0 to t) in Sprague-Dawley rat at 20 mg/kg, po measured after 48 hrs; assay type: ADME, organism-based; settings: in vivo
Mus musculus [3] = experiment: Antiinflammatory activity in LPS-induced BALB/c sepsis mouse model assessed as decrease in volume of spleen nucleus at 10 to 20 mg/kg, po preadministered with compound for 14 days followed by LPS stimulation and measured after 6 hrs by H&E staining based analysis; assay type: functional, organism-based; settings: dose 10-20 mg/kg, time 342.0 hrs
Mus musculus [4] = experiment: Antiinflammatory activity in LPS-induced BALB/c sepsis mouse model assessed as reversal of LPS-induced kidney renal index at 20 mg/kg, po preadministered with compound for 14 days followed by LPS stimulation and measured after 6 hrs; assay type: functional, organism-based; settings: time 342.0 hrs
[5] = Half-life in Sprague-Dawley rat at 5 mg/kg, iv measured after 48 hrs; assay type: ADME, organism-based; settings: in vivo
Mus musculus [6] = experiment: Antiinflammatory activity in LPS-induced BALB/c sepsis mouse model assessed as decrease in serum TNF-alpha level at 20 mg/kg, po preadministered with compound for 14 days followed by LPS stimulation and measured after 6 hrs by ELISA; assay type: functional, organism-based; settings: time 342.0 hrs
RAW264.7 [7] = experiment: Antiinflammatory activity in LPS-induced mouse RAW264.7 cells assessed as reduction in ROS level at 5 to 20 uM pretreated with compound followed by LPS stimulation and measured after 1 hrs by flow cytometric analysis; assay type: functional, cell-based; settings: dose 5-20 µM
Mus musculus [8] = experiment: Antiinflammatory activity in LPS-induced BALB/c sepsis mouse model assessed as reversal of LPS-induced lung […] index at 20 mg/kg, po preadministered with compound for 14 days followed by LPS stimulation and measured after 6 hrs; assay type: functional, organism-based; settings: time 342.0 hrs
[9] = Cmax in Sprague-Dawley rat at 5 mg/kg, iv measured after 48 hrs; assay type: ADME, organism-based; settings: in vivo
Mus musculus [10] = experiment: Antiinflammatory activity in LPS-induced BALB/c sepsis mouse model assessed as decrease in serum BUN level at 10 to 20 mg/kg, po preadministered with compound for 14 days followed by LPS stimulation and measured after 6 hrs; assay type: functional, organism-based; settings: dose 10-20 mg/kg, time 342.0 hrs
[11] = Half-life in Sprague-Dawley rat at 20 mg/kg, po measured after 48 hrs; assay type: ADME, organism-based; settings: in vivo
Mus musculus [12] = experiment: Antiinflammatory activity in LPS-induced BALB/c sepsis mouse model assessed as decrease in phosphorylated eIF4E level in spleen at 10 to 20 mg/kg, po preadministered with compound for 14 days followed by LPS stimulation and measured after 6 hrs by Western blot analysis; assay type: functional, organism-based; settings: dose 10-20 mg/kg, time 342.0 hrs
Mus musculus [13] = experiment: Antiinflammatory activity in LPS-induced BALB/c sepsis mouse model assessed as reversal of LPS-induced spleen […] index at 20 mg/kg, po preadministered with compound for 14 days followed by LPS stimulation and measured after 6 hrs; assay type: functional, organism-based; settings: time 342.0 hrs
RAW264.7 [14] = experiment: Antiinflammatory activity against LPS-induced mouse RAW264.7 cells assessed as decrease in iNOS expression at 10 to 20 uM by Western blot analysis; assay type: functional, cell-based; settings: dose 10-20 µM
Mus musculus [15] = experiment: Antiinflammatory activity in LPS-induced BALB/c sepsis mouse model assessed as decrease in IL-6 level in spleen at 10 to 20 mg/kg, po preadministered with compound for 14 days followed by LPS stimulation and measured after 6 hrs by Western blot analysis; assay type: functional, organism-based; settings: dose 10-20 mg/kg, time 342.0 hrs
Mus musculus [16] = experiment: Antiinflammatory activity in LPS-induced BALB/c sepsis mouse model assessed as decrease in iNOS level in spleen at 10 to 20 mg/kg, po preadministered with compound for 14 days followed by LPS stimulation and measured after 6 hrs by Western blot analysis; assay type: functional, organism-based; settings: dose 10-20 mg/kg, time 342.0 hrs
[17] = target: T1, MAP kinase-interacting serine/threonine-protein kinase 2 (Homo sapiens, UniProt Q9HBH9); experiment: Inhibition of MNK2 (unknown origin) incubated for 60 mins in presence of ATP by HTRF assay
Target sequence in this assay (Q9HBH9 whole entry): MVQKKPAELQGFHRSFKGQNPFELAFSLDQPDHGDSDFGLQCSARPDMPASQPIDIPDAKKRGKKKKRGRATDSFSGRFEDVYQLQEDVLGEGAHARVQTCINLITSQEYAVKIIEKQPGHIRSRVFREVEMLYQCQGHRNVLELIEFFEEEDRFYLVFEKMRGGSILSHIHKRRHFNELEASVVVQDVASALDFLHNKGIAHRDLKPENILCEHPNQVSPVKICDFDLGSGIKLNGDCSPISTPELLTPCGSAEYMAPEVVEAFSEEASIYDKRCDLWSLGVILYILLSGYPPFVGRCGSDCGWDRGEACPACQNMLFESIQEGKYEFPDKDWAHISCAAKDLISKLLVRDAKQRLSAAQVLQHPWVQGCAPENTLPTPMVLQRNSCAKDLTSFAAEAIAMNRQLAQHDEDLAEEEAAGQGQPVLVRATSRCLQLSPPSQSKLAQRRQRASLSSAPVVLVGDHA

Mus musculus [18] = experiment: Antiinflammatory activity in LPS-induced BALB/c sepsis mouse model assessed as increase in GSH level in serum at 20 mg/kg, po preadministered with compound for 14 days followed by LPS stimulation and measured after 6 hrs; assay type: functional, organism-based; settings: time 342.0 hrs
[19] = target: MAP kinase-interacting serine/threonine-protein kinase 1 (Homo sapiens, UniProt Q9BUB5); experiment: Inhibition of MNK1 (unknown origin) incubated for 60 mins in presence of ATP by HTRF assay
Mus musculus [20] = experiment: Antiinflammatory activity in LPS-induced BALB/c sepsis mouse model assessed as decrease in serum IL-6 level at 20 mg/kg, po preadministered with compound for 14 days followed by LPS stimulation and measured after 6 hrs by ELISA; assay type: functional, organism-based; settings: time 342.0 hrs
Mus musculus [21] = experiment: Antiinflammatory activity in LPS-induced BALB/c sepsis mouse model assessed as decrease in infiltration of macrophages in spleen at 10 to 20 mg/kg, po preadministered with compound for 14 days followed by LPS stimulation and measured after 6 hrs by immunohistochemistry analysis; assay type: functional, organism-based; settings: dose 10-20 mg/kg, time 342.0 hrs
MV4-11 = experiment: Antiproliferative activity against human MV4-11 cells assessed as inhibition of cell proliferation at 20 uM incubated for 48 hrs by CCK8 assay relative to control; assay type: functional
Mus musculus [22] = experiment: Antiinflammatory activity in LPS-induced BALB/c sepsis mouse model assessed as decrease in serum ALT level at 10 to 20 mg/kg, po preadministered with compound for 14 days followed by LPS stimulation and measured after 6 hrs; assay type: functional, organism-based; settings: dose 10-20 mg/kg, time 342.0 hrs
Mus musculus [23] = experiment: Antiinflammatory activity in LPS-induced BALB/c sepsis mouse model assessed as decrease in inflammatory cells in spleen at 10 to 20 mg/kg, po preadministered with compound for 14 days followed by LPS stimulation and measured after 6 hrs by H&E staining based analysis; assay type: functional, organism-based; settings: dose 10-20 mg/kg, time 342.0 hrs
RAW264.7 [24] = experiment: Antiinflammatory activity against LPS-induced mouse RAW264.7 cells assessed as decrease in COX-2 expression at 10 to 20 uM by Western blot analysis; assay type: functional, cell-based; settings: dose 10-20 µM
Mus musculus [25] = experiment: Antiinflammatory activity in LPS-induced BALB/c sepsis mouse model assessed as decrease in cell gap in spleen at 10 to 20 mg/kg, po preadministered with compound for 14 days followed by LPS stimulation and measured after 6 hrs by H&E staining based analysis; assay type: functional, organism-based; settings: dose 10-20 mg/kg, time 342.0 hrs
Mus musculus [26] = experiment: Antiinflammatory activity in LPS-induced BALB/c sepsis mouse model assessed as decrease in serum IL-1beta level at 20 mg/kg, po preadministered with compound for 14 days followed by LPS stimulation and measured after 6 hrs by ELISA; assay type: functional, organism-based; settings: time 342.0 hrs
RAW264.7 [27] = experiment: Antiinflammatory activity against LPS-induced mouse RAW264.7 cells assessed as inhibition of phosphorylated eIF4E expression preincubated for 1 hrs followed by LPS stimulation and measured after 1 hrs by DAPI staining based immunofluorescence analysis; assay type: functional, cell-based; settings: dose 5-20 µM, time 2.0 hrs
[28] = target: T1, MAP kinase-interacting serine/threonine-protein kinase 2; experiment: Inhibition of MNK2 (unknown origin) at 1 uM relative to control
Target sequence in this assay (Q9HBH9 whole entry, looked up): as the sequence (Q9HBH9 whole entry) above

[29] = Cmax in Sprague-Dawley rat at 20 mg/kg, po measured after 48 hrs; assay type: ADME, organism-based; settings: in vivo
Mus musculus [30] = experiment: Antiinflammatory activity in LPS-induced BALB/c sepsis mouse model assessed as decrease in serum creatinine level at 10 to 20 mg/kg, po preadministered with compound for 14 days followed by LPS stimulation and measured after 6 hrs; assay type: functional, organism-based; settings: dose 10-20 mg/kg, time 342.0 hrs
Mus musculus [31] = experiment: Antiinflammatory activity in LPS-induced BALB/c sepsis mouse model assessed as decrease in serum AST level at 10 to 20 mg/kg, po preadministered with compound for 14 days followed by LPS stimulation and measured after 6 hrs; assay type: functional, organism-based; settings: dose 10-20 mg/kg, time 342.0 hrs

MAP kinase-interacting serine/threonine-protein kinase 1, sequence (Q9BUB5 whole entry): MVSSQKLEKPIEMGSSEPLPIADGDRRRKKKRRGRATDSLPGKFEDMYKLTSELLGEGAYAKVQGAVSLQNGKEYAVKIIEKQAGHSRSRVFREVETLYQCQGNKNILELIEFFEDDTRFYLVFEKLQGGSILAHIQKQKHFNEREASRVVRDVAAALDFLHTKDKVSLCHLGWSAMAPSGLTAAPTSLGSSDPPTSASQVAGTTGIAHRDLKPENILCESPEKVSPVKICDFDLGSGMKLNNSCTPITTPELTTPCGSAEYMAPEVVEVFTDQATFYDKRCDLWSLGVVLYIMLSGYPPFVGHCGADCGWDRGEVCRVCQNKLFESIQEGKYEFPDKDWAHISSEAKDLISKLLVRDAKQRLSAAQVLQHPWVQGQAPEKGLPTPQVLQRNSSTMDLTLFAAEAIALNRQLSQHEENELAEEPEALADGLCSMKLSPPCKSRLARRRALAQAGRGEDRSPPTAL

AUCt [2]: 755.3 ng·h/mL | half-life [5]: 5.52 h | Cmax [9]: 3580 ng/mL | half-life [11]: 3.34 h | IC50 [17]: 135 nM | IC50 [19]: 121 nM | inhibition [28]: 85.8% | Cmax [29]: 26.2 ng/mL
Compound: c1cc(-c2cc(C3CCNCC3)n[nH]2)c2cc[nH]c2n1
Activity (RAW264.7 [1]): Active | Activity (Mus musculus [3]): Active | Activity (Mus musculus [4]): Active | Activity (Mus musculus [6]): Active | Activity (RAW264.7 [7]): Active | Activity (Mus musculus [8]): Active | Activity (Mus musculus [10]): Active | Activity (Mus musculus [12]): Active | Activity (Mus musculus [13]): Active | Activity (RAW264.7 [14]): Active | Activity (Mus musculus [15]): Active | Activity (Mus musculus [16]): Active | Activity (Mus musculus [18]): Active | Activity (Mus musculus [20]): Active | Activity (Mus musculus [21]): Active | inhibition at 20 µM (MV4-11): 98.5% | Activity (Mus musculus [22]): Active | Activity (Mus musculus [23]): Active | Activity (RAW264.7 [24]): Active | Activity (Mus musculus [25]): Active | Activity (Mus musculus [26]): Active | Activity (RAW264.7 [27]): Dose-Dependent Effect | Activity (Mus musculus [30]): Active | Activity (Mus musculus [31]): Active
